Test results taken from PMC6246682, “Structural Basis of Tau Interaction With BIN1 and Regulation by Tau Phosphorylation” (Frontiers in Molecular Neuroscience, 2018).

How the values were obtained:
BIN1 SH3 domain = biological target: T1, BIN1 SH3 domain (Homo sapiens, UniProt O00499); assay: NMR chemical shift perturbation titration, dissociation constant determination; type: binding; conditions: peptide/BIN1 SH3 molar ratios 0, 0.5, 1, 2, 4, 8 and 12; 1H-15N HSQC
T1 construct: The BIN1 isoform 1 and BIN1 SH3 domain were expressed and purified as previously described; made in house
T1 sequence (O00499 520-593 limits assumed): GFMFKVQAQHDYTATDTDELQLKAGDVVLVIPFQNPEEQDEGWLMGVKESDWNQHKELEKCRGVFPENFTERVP
Description: The weighted average chemical shift differences were calculated as described by [Garrett et al. (1997)] - i.e., (ΔH^2 + (ΔN×0.2)^2)^1/2, with ΔH and ΔN the chemical shift changes for ^1H and ^15N, respectively. Dissociation constants were obtained by fitting the chemical shift perturbation data to the following equation Δδobs = Δδmax(a + b + Kd−((a + b + Kd)^2−4ab)^1/2)/2a where Δδobs is the weighted average of the chemical shifts in the free and bound states and Δδmax is the maximal signal change upon saturation. Kd is the dissociation constant, a and b are the total peptide and BIN1 SH3 concentrations, respectively. Kd were averaged based on chemical shift perturbations of 7 distinct resonances.
Labeled resonances correspond to the major chemical shift perturbations, color coded as in Figure 4A. Enlarged regions of the superimposed spectra show 3 resonances involved in the interaction.
Det ail o f o ver la id 1H-15N HSQC spe ct ra o f BIN1 SH3 do ma in, in t he prese nce o f increa s ing a mo unt o f Tau(210-240) pept ide, mo lar rat io s pe pt ide/BIN1 SH3 0, 0.5, 1, 2, 4, 8 and 12 (co lo r sca le fro m purp le t o gray), o r o f p ho spho-Tau(210-240) pept ide, sa me mo lar rat ios (sa me co lo r sca le). A spect rum is reco rded fo r each t it rat io n po int . […]

BIN1 isoform 1 = assay: 1H-15N HSQC competition with intramolecular BIN1 SH3/CLAP interaction; type: binding; conditions: 1H-15N HSQC of BIN1 isoform 1 (0.08 mM), 20°C, 900 MHz, molar ratio 1:8
Description: NMR experiments were recorded on Bruker 950-MHz, 900-MHz, or 600-MHz spectrometers all equipped with a triple-resonance cryogenic probe. NMR measurements were performed in 50 mM sodium phosphate buffer, pH 7.3, 30 mM NaCl, 3 mM DTT and 10% D2O (NMR buffer). BIN1 SH3 domain backbone assignment has been previously reported ([Malki et al., 2017]). […] For side-chain assignment, additional 3D^15N NOESY-HSQC, 3D^15N-edited TOCSY, 3D (H)CCH TOCSY, and 3D H(C)CH TOCSY experiments were recorded. A 3D ^13C-edited NOESY was further used for side-chain assignment validation. All assignment experiments were recorded at 5°C. Chemical shift values (Supplementary Table S1) were directly transferred at 20°C, because the differences of chemical shift values were small between 5 and 20°C. […] BIN1 isoform 1 ^1H-^15N HSQC spectra were recorded at 20°C at 900 MHz (0.08 mM sample) with 3096 points (direct) and 280 points (indirect), for spectral width of 14 ppm and 26 ppm, respectively, and 256 scans. A 3D F1 ^13C/^15N-filtered and F3 ^15N-edited NOESY-HSQC, with WATERGATE (WATER suppression by GrAdient-Tailored Excitation) scheme ([Piotto et al., 1992]), named noesyhsqcf3gpwgx13d, part of the Bruker pulse sequence library, was recorded at 20°C at 950 MHz for the detection of intermolecular NOEs to amide groups. […] Spectra were processed using TopSpin software (Bruker) and analyzed by CcpNmr Analysis ([Vranken et al., 2005]).
As NMR is sensitive to mobility, this equilibrium translated into detection of BIN1 SH3 domain signals only upon its release from the intramolecular interaction ([Malki et al., 2017]). […] Consequently, in the presence of the phosphorylated Tau peptide (210–240), BIN1 SH3 domain remained immobilized by the intramolecular interaction with BIN1 isoform1 CLAP domain, mainly adopting the closed conformation.
(A) ^1H-^15N HSQC spectrum of BIN1 isoform 1 (112 KDa, homodimer). […] (B) ^1H-^15N HSQC spectra of BIN1 isoform 1 in the presence of phospho-Tau (210–240), molar ratio 1:8. The signals corresponding to the isolated BIN1 SH3 domain were barely detected.

saturation / affinity in titration (BIN1 SH3 domain): lo wer a ffin it y
Substance: phosphorylated Tau (210–240): Tau (210–240) phosphorylated by CDK2/CycA3; T212, T231, S235 full, T217 half-phosphorylated
competition with intramolecular BIN1 SH3/CLAP interaction (BIN1 isoform 1): not able to displace the intramolecular interaction of BIN1 SH3 with BIN1 CLAP domain | competition with intramolecular BIN1 SH3/CLAP interaction (BIN1 isoform 1; listed as Phospho-Tau (210–240)): cannot compete with the intramolecular interaction of BIN1 SH3 with the CLAP domain | competition with intramolecular BIN1 SH3/CLAP interaction (BIN1 isoform 1; listed as Tau (210–240) phosphorylated at four different sites (T212, T217, T231, and S235)): unable to compete with the intramolecular interaction of BIN1 SH3 domain with its CLAP domain | competition with intramolecular BIN1 SH3/CLAP interaction (BIN1 isoform 1; listed as Tau (210–240) phosphorylated at multiple sites): not able to compete with the intra-molecular interaction of BIN1 SH3 with the CLAP domain as efficiently as its unphosphorylated counterpart
